Data published in patent US12195482B1 (Arcus Biosciences, Inc., priority 2022, dated 2025).

Assays:
Axl = target: T1, Axl (Homo sapiens, UniProt P30530); test: Biochemical potency, HTRF KinEASE-TK kinase assay; set-up: purchased Invitrogen; details: 5 nM AXL, 700 μM ATP
T1 sequence (P30530 26-894): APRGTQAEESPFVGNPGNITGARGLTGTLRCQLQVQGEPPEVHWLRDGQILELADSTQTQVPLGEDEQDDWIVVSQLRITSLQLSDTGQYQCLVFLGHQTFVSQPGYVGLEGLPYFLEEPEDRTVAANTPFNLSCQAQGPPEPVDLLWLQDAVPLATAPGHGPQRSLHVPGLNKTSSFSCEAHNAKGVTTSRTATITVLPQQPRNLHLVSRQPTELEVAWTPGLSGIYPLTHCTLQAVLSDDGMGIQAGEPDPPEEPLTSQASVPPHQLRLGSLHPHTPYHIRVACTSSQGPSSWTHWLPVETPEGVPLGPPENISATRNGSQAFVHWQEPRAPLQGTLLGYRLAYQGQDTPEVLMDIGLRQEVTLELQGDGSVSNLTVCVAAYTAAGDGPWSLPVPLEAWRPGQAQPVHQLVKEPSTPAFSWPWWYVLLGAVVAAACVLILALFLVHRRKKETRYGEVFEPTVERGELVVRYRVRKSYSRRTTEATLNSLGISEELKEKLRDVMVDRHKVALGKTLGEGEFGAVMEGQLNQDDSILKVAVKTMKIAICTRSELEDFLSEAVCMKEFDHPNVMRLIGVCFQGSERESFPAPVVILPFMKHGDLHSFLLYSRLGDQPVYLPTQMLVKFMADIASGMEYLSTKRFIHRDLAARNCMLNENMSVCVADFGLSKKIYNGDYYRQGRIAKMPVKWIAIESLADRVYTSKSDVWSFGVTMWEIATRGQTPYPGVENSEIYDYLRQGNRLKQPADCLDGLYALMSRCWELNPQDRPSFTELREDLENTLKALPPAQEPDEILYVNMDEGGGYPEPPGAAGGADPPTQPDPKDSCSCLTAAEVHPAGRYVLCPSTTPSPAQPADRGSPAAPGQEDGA
Protocol: Measurement of Biochemical Compound Potency of Axl Inhibitors
Purified recombinant human AXL, TYRO3 and MER proteins were purchased from Invitrogen™. 10 nM AXL, 2 nM TYRO3 or MER were incubated with varying concentrations of compounds in 50 mM HEPES, pH 7.4, 10 mM MgCl2, 0.01% BSA, 1 mM DTT and 2% DMSO in a total volume of 20 μl in a 384-well microplate (Corning™ #3640) at RT for 1 h. The AXL, TYRO3 and MER enzymatic reaction was initiated by transferring 10 μl of enzyme and compound mixture into 10 μl of 1.6 μM TK Substrate-biotin (HTRF® KinEASE-TK kit, Cisbio) and 1400 μM ATP pre-incubated in 50 mM HEPES, pH 7.4, 10 mM MgCl2, 0.01% BSA, 1 mM DTT in a 384-well microplate (Corning™ #3640) at RT, giving the final reaction conditions: 5 nM AXL, 1 nM TYRO3 or MER, 800 nM TK Substrate-biotin and 700 μM ATP in 50 mM HEPES, pH 7.4, 10 mM MgCl2, 0.01% BSA, 1 mM DTT and 1% DMSO with varying concentrations of compounds. Following 2 h incubation at RT, the AXL, TYRO3 and MER enzymatic reaction was stopped by transfer of 10 μl of reaction into 10 μl of detection mix (400 nM Streptavidin-XL665, 200-fold dilution TK Antibody-Cryptate and detection buffer, HTRF® KinEASE-TK kit, Cisbio) in a white 384-well microplate (Perkin Elmer, OptiPlate 384). After 1 h incubation at RT, the plate was put into a plate reader (Evision) to read at 665/620 nm (acceptor/donor) for HTRF. The value of the DMSO blank (MIN inhibition=100% activity) was used as a negative control. The positive control was established by adding 5 μl of enzyme and DMSO mixture into 10 μl of detection mix followed by addition of 5 μl of TK Substrate-biotin and ATP mixture (MAX inhibition=0% activity). To calculate the percent activity, Equation 1 was used. Ratio665/620 is the value at a given compound concentration: […]

p-AXL = target: T2, p-AXL (Homo sapiens, UniProt P30530); test: Axl phosphorylation inhibition ELISA in HEK293T cells transfected with NanoLuc-tagged AXL; format: cell-based; details: 1 h compound incubation, media (OptiMEM)
T2 construct: expressed in transfected cells; host or cells: HEK293T
T2 sequence (P30530 26-894): T1 sequence (P30530 26-894)
Protocol: [formula] Measurement of Axl Phosphorylation Inhibition
The dose-response assays were performed in S-Bio PrimeSurface® 3D culture: Ultra-low Attachment Plates: 384 well, U bottom (#MS-9384UZ) containing 400 nL of 22 serial 2-fold compound dilutions using Bravo and Echo. ELISA assay was performed on Pierce™ streptavidin coated high capacity 384-well white plates (Thermofisher Cat #15505). The plates were coated overnight at 4° C. with 50 μl/well of biotinlyated phospho-tyrosine mouse mAb (Cell Signaling Technology, 9417s).
HEK293T cells were grown in DMEM containing 10% FBS, 1% Pen/Strep, 1% G-Max. A day before the assay, cells were transiently transfected with 6.8 μg of NanoLuc-tagged AXL plasmid DNA and 8 μg of carrier DNA using FuGENE® HD Transfection Reagent (Promega) according to manufacturer's instructions. On the day of the assay, transfected cells were harvested and resuspended in OptiMEM. 70,000 cells/well were added to the compounds containing assay plates. After a gentle mix and a short spin, the plates were incubated at 37° C. After 1 h, the cells were lysed followed by a brief centrifugation and 30 min of shaking at 300 rpm. Meanwhile, the antibody coated plates were brought to room temperature and then were washed ten times in PBS with 0.05% Tween 20 (ELISA-wash buffer). 50 μl/well of cell lysate was transferred to the ELISA plates and shaken for 2 hours. After washing again with the ELISA wash buffer, the samples were diluted with 25 μl of PBS. The captured NanoLuc tagged p-AXL was detected using Nano-Glo® Luciferase Assay System (Promega) and manufacturer's instruction. The luminescence signal was measured using Envision plate reader. IC50 values were determined by fitting the data to a standard 4-parameter logistic equation.

| SMILES | IC50 (Axl) [nM] | IC50 (p-AXL) [nM] |
| --- | --- | --- |
| CCn1ncnc1-c1ccc(-c2n[nH]c3ncc(-c4ccc5c(c4)CC[C@@H](N4C6COCC4C6)CC5)cc23)cc1 [Example 138, 6-[(7S)-2-{3-[4-(1-Ethyl-1H-1,2,4-triazol-5-yl)phenyl]-1H-pyrazolo[3,4-b]pyridin-5-yl}-6,7,8,9-tetrahydro-5H-benzo[7]annulen-7-yl]-3-oxa-6-azabicyclo[3.1.1]heptane] | < 100 | < 100 |
| c1cnc(-c2ccc(-c3n[nH]c4ncc(-c5ccc6c(c5)CC[C@@H](N5C7COCC5C7)CC6)cc34)cc2)c(C2CCOCC2)c1 [Example 149, 6-[(7S)-2-(3-{4-[3-(Oxan-4-yl)pyridin-2-yl]phenyl}-1H-pyrazolo[3,4-b]pyridin-5-yl)-6,7,8,9-tetrahydro-5H-benzo[7]annulen-7-yl]-3-oxa-6-azabicyclo[3.1.1]heptane] | < 100 | < 100 |
| Cc1ccc(C)c(-c2ccc(-c3n[nH]c4ncc(-c5ccc6c(c5)CC[C@@H](N5CCCC5)CC6)cc34)cc2)n1 [Example 139, 3,6-Dimethyl-2-(4-{5-[(7S)-7-(pyrrolidin-1-yl)-6,7,8,9-tetrahydro-5H-benzo[7]annulen-2-yl]-1H-pyrazolo[3,4-b]pyridin-3-yl}phenyl)pyridine] | < 100 | < 100 |
| Cc1cccnc1-n1cc(-c2c[nH]c3ncc(-c4ccc5c(c4)CC[C@@H](N4C6COCC4C6)CC5)cc23)cn1 [Example 27, 6-[(7S)-2-{3-[1-(3-Methylpyridin-2-yl)-1H-pyrazol-4-yl]-1H-pyrrolo[2,3-b]pyridin-5-yl}-6,7,8,9-tetrahydro-5H-benzo[7]annulen-7-yl]-3-oxa-6-azabicyclo[3.1.1]heptane] | < 100 | < 100 |
| Cc1cnc(C)c(-c2ccc(-c3c[nH]c4ncc(-c5ccc6c(c5)CC[C@@](C)(N5CCC[C@H]5C)CC6)cc34)nc2)n1 [Example 68, 2,5-Dimethyl-3-(6-{5-[(7S)-7-methyl-7-[(2R)-2-methylpyrrolidin-1-yl]-6,7,8,9-tetrahydro-5H-benzo[7]annulen-2-yl]-1H-pyrrolo[2,3-b]pyridin-3-yl}pyridin-3-yl)pyrazine] | < 100 | < 100 |
| Cc1ccc(C(C)(C)O)nc1-c1ccc(-c2c[nH]c3ncc(-c4ccc5c(c4)CC[C@@H](N4C6COCC4C6)CC5)cc23)cc1 [Example 8, 2-[5-Methyl-6-(4-{5-[(7S)-7-{3-oxa-6-azabicyclo[3.1.1]heptan-6-yl}-6,7,8,9-tetrahydro-5H-benzo[7]annulen-2-yl]-1H-pyrrolo[2,3-b]pyridin-3-yl}phenyl)pyridin-2-yl]propan-2-ol] | < 100 | 100 to 1000 |
| Cc1ccc(C)c(-c2ccc(-c3c[nH]c4ncc(-c5ccc6c(c5)CC[C@@H](N5C7COC[C@H]5C7)CC6)cc34)nc2)n1 [Example 142, 3,6-Dimethyl-6′-{5-[(7S)-7-[(1R)-3-oxa-6-azabicyclo[3.1.1]heptan-6-yl]-6,7,8,9-tetrahydro-5H-benzo[7]annulen-2-yl]-1H-pyrrolo[2,3-b]pyridin-3-yl}-2,3′-bipyridine] | < 100 | < 100 |

Now from value to compound:

| IC50 (Axl) [nM] | IC50 (p-AXL) [nM] | SMILES |
| --- | --- | --- |
| < 100 | 100 to 1000 | Cc1ccc(C)c(-c2ccc(-c3c[nH]c4ncc(-c5ccc6c(c5)CC[C@@H](N5CCCC5)CC6)cc34)cc2)n1 [Example 148, 3,6-Dimethyl-2-(4-{5-[(7S)-7-(pyrrolidin-1-yl)-6,7,8,9-tetrahydro-5H-benzo[7]annulen-2-yl]-1H-pyrrolo[2,3-b]pyridin-3-yl}phenyl)pyridine] |
| < 100 | < 100 | Cc1ccc(C)c(-c2ccc(-c3n[nH]c4ncc(-c5ccc6c(c5)CC[C@@H](N[C@H]5CCCOC5)CC6)cc34)cc2)n1 [Example 140, (3S)—N-[(7S)-2-{3-[4-(3,6-Dimethylpyridin-2-yl)phenyl]-1H-pyrazolo[3,4-b]pyridin-5-yl}-6,7,8,9-tetrahydro-5H-benzo[7]annulen-7-yl]oxan-3-amine] |
| < 100 | < 100 | Cc1cccnc1-c1ccc(-c2n[nH]c3ncc(-c4ccc5c(c4)CC[C@@H](N[C@H]4CCCOC4)CC5)cc23)nc1 [Example 106, (3S)—N-[(7S)-2-(3-{3-Methyl-[2,3′-bipyridin]-6′-yl}-1H-pyrazolo[3,4-b]pyridin-5-yl)-6,7,8,9-tetrahydro-5H-benzo[7]annulen-7-yl]oxan-3-amine] |
| < 100 | < 100 | COC[C@H]1CCN([C@H]2CCc3ccc(-c4cnc5[nH]cc(-c6ccc(-c7nc(C)cnc7C)cc6)c5c4)cc3CC2)C1 [Example 63, 3-(4-{5-[(7S)-7-[(3S)-3-(Methoxymethyl)pyrrolidin-1-yl]-6,7,8,9-tetrahydro-5H-benzo[7]annulen-2-yl]-1H-pyrrolo[2,3-b]pyridin-3-yl}phenyl)-2,5-dimethylpyrazine] |
| < 100 | 100 to 1000 | Cc1ccc(C)c(-c2ccc(-c3n[nH]c4ncc(-c5ccc6c(c5)CC[C@@H](N5C7COCC5C7)CC6)cc34)cc2C)n1 [Example 185, 6-[(7S)-2-{3-[4-(3,6-Dimethylpyridin-2-yl)-3-methylphenyl]-1H-pyrazolo[3,4-b]pyridin-5-yl}-6,7,8,9-tetrahydro-5H-benzo[7]annulen-7-yl]-3-oxa-6-azabicyclo[3.1.1]heptane] |
| < 100 | < 100 | Cc1cccnc1-c1ccnc(-c2c[nH]c3ncc(-c4ccc5c(c4)CC[C@@H](N4C6COCC4C6)CC5)cc23)c1 [Example 83, 3-Methyl-2′-{5-[(7S)-7-{3-oxa-6-azabicyclo[3.1.1]heptan-6-yl}-6,7,8,9-tetrahydro-5H-benzo[7]annulen-2-yl]-1H-pyrrolo[2,3-b]pyridin-3-yl}-2,4′-bipyridine] |
| < 100 | < 100 | Cn1ncnc1-c1ccc(-c2n[nH]c3ncc(-c4ccc5c(c4)CC[C@@H](N[C@H]4CCCOC4)CC5)cc23)cc1 [Example 134] |
| < 100 | 100 to 1000 | Cc1cccnc1-c1ccc(-c2n[nH]c3ncc(-c4ccc5c(c4)CCC(N4CCCC4)C5)cc23)cc1 (stereo not drawn) [Example 19, 3-Methyl-2-(4-{5-[6-(pyrrolidin-1-yl)-5,6,7,8-tetrahydronaphthalen-2-yl]-1H-pyrazolo[3,4-b]pyridin-3-yl}phenyl)pyridine] |
